Key:
[1] = tested on: cholangiocarcinoma; settings: ABC-02 trial (Valle et al., 2010); cited from earlier work
[2] = Tolerability (body weight, clinical observations) in UREx-MR2057PD-AR xenograft study; format: in vivo, Mouse (Mus musculus)
Description: (§1) All animals were weighed at the same time as tumor size measurement. A Relative Body Weight loss (RBW loss) was considered as adverse effect of the treatment.
(§2) Mice were observed every day for physical appearance, behavior and clinical changes.
(§3) Relative Body Weight (RBW) is calculated for each measurement by dividing the body weight by the body weight at the start of treatment.
(§4) Individual Body weight loss percent (% BWL)=100−(BWX/BW0×100), where BWX is the BW at any day during the treatment and BW0 is the BW on the day of inclusion.
(§5) Mean Body weight loss percent (% BWL)=100−(mean BWX/mean BW0×100), where BWX is the mean BW at any day during the treatment and BW0 is the mean BW on the day of inclusion.

[3] = tested on: advanced or metastatic cholangiocarcinoma with FGFR genetic alterations; assay: Phase II study of oral BGJ398 in advanced or metastatic cholangiocarcinoma, Patient 5010004 (RECIST v1.1); format: in vivo, human; settings: Patient 5010004, oral erdafitinib prior to study treatment
Description: This is a multi-center, open label, single arm phase II study evaluating BGJ398 anti-tumor activity in advanced or metastatic cholangiocarcinoma patients with FGFR genetic alterations. 125 mg of oral, monotherapy BGJ398 is administered once daily for the first 3 weeks (21 days) of each 28-day cycle. The starting dose of 125 mg may be reduced to 100 mg, 75 mg, or 50 mg. The treatment period begins on Cycle 1, Day 1, and continues until disease progression, unacceptable toxicity, withdrawal of informed consent, or death. Patients are evaluated for tumor response radiographically every 8 weeks until disease progression or discontinuation from study using RECIST v1.1 criteria.
Adult patients with histologically or cytologically confirmed advanced or metastatic cholangiocarcinoma with FGFR2 gene fusions or translocations or other FGFR genetic alteration who have evidence of radiologic progression following a cisplatin- and gemcitabine-containing regimen for advanced disease or a gemcitabine-containing regimen for those who are considered intolerant to cisplatin are enrolled. Up to approximately 160 adult patients over age 18, both male and female are enrolled. Three cohorts of patients comprise the study population: • Cohort 1: ˜120 patients, 108 with FGFR2 gene fusions or translocations and 12 with other FGFR genetic alterations. • Cohort 2: ˜20 patients with FGFR genetic alterations other than FGFR2 gene fusions or translocations. • Cohort 3: Up to ˜20 patients with FGFR2 gene fusions or translocations who have received a prior FGFR inhibitor. Main Inclusion Criteria
Tumor response according to RECIST v1.1, and survival.
During treatment with infigratinib, the patient's response was determined by follow-up assessments conducted by a local investigator per RECIST v1.1.

[4] = Tolerability (body weight, clinical observations) in Vex-MR086M1 xenograft study; format: in vivo, Mouse (Mus musculus)
Description: as §1, §2, §3, §4, §5

SMILES	median overall survival [1]	median progression-free survival [1]	clinical observations ([2]; erdafitinib 15 mg/kg PO qdx21)	maximum mean body weight loss ([2]; erdafitinib 15 mg/kg PO qdx21)	tolerability ([2]; erdafitinib 15 mg/kg PO qdx21)	maximum individual body weight loss ([2]; erdafitinib 15 mg/kg PO qdx21, on D3)	best response [3]	time to discontinuation due to radiological disease progression [3]	clinical observations ([4]; erdafitinib 15 mg/kg PO qdx21)	mean body weight loss ([4]; erdafitinib 15 mg/kg PO qdx21)	tolerability ([4]; erdafitinib 15 mg/kg PO qdx21)	maximum individual body weight loss ([4]; erdafitinib 15 mg/kg PO qdx21, on D17)
Nc1ccn([C@@H]2O[C@H](CO)[C@@H](O)C2(F)F)c(=O)n1 [gemcitabine]	8.1 months	5.0 months	–	–	–	–	–	–	–	–	–	–
COc1cc(OC)cc(N(CCNC(C)C)c2ccc3ncc(-c4cnn(C)c4)nc3c2)c1 [Erdafitinib, reference compound]	–	–	No relevant observable signs were reported	no maximum mean body weight loss	well tolerated	4.9%	progressive disease	approximately 2 months	No relevant observable signs were reported	no mean body weight loss	well tolerated except for 1 mouse	10.6%

From patent US12357632B2, “Methods of treating cholangiocarcinoma” (QED Therapeutics, Inc., priority 2019, dated 2025)
